Experimental data as given in PMC6886544.
Like-named read-outs stand apart in the source and are kept apart here.

How the values were obtained:
[1] = tested on: HCC827 cells (EGFR-delE746_A750); assay: CellTiter-Glo viability assay, HCC827; format: cell-based; conditions: Homo sapiens; HCC827, 96 hours, CellTiter-Glo; read-out: EGFR CTG EC50 HCC827;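 further: luminescence from ATP content as a measure of metabolically active cells, in RPMI with 10% FBS, compound added as serial dilutions after 24 h of preculture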
[2] = tested on: H358 cells (KRAS mutant); assay: CellTiter-Glo viability assay, H358; format: cell-based; conditions: Homo sapiens, NCI-H358;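 further: viable cell number estimated from ATP-dependent luminescence following exposure to serially diluted inhibitor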
[3] = Microsomal stability (phase I), mouse; format: in vitro ADME; conditions: mouse liver microsomes, up to 60 minutes, 37 °C
Procedure: Microsomal stability (phase I) assay.
Metabolic stability under oxidative conditions was measured in liver microsomes from different
time up to 50 minutes (HLM) or 60 minutes (MLM) at 37 °C. Based on the compound half-life t1/2,
the in vitro intrinsic clearance CLint was calculated. […]

[4] = Plasma stability, mouse; format: in vitro ADME; conditions: 5 µM, 1 h, 37 °C
[5] = Plasma protein binding, human; format: in vitro ADME; conditions: equilibrium dialysis, 37 °C
Procedure: (§1) Assessment of plasma protein binding was measured by equilibrium dialysis by incubating plasma
(§2) based determination of final compound concentrations. […]

[6] = Plasma protein binding, mouse; format: in vitro ADME; conditions: equilibrium dialysis, 37 °C
Procedure: as §1, §2

[7] = tested on: A431 cells (EGFR wild type); assay: CellTiter-Glo viability assay, A431
[8] = tested on: A549 cells (KRAS mutant); assay: CellTiter-Glo viability assay, A549; conditions: Homo sapiens
[9] = tested on: H1975 cells (EGFR-L858R/T790M); assay: CellTiter-Glo viability assay, H1975; conditions: Homo sapiens, NCI-H1975, 96 h, read-out: EGFR CTG EC50 H1975, H1975, 96 hours, CellTiter-Glo
[10] = target: EGFR-wt (Homo sapiens, UniProt P00533); assay: HTRF KinEASE-TK activity-based assay, EGFR-wt; conditions: EGFR HTRF IC50 wt, ATP at Km (9.5 µM), 30 min preincubation; mean ± SD of three independent measurements in duplicates
[11] = target: T1, EGFR-L858R (Homo sapiens, UniProt P00533, L858R); assay: HTRF KinEASE-TK activity-based assay, EGFR-L858R
[12] = target: T1, EGFR-L858R; assay: Kinetic characterization (Ki, kinact), EGFR-L858R
[13] = target: EGFR-L858R/T790M (Homo sapiens, UniProt P00533, L858R/T790M); assay: HTRF KinEASE-TK activity-based assay, EGFR-L858R/T790M; conditions: EGFR HTRF IC50 L858R/T790M, ATP at Km (4 µM), 30 min preincubation; mean ± SD of three independent measurements in duplicates
[14] = target: BLK (Homo sapiens, UniProt P51451); assay: SelectScreen kinase profiling, BLK; format: biochemical; conditions: mean ± SD of one measurement in duplicates
Procedure: (§3) Kinase profiling of compound 17a at a concentration of 1 µM generated with the SelectScreen® Profiling Service from Life Technologies.
(§4) Figure S2. Kinase profiling of compound 17a, Illustration as waterfall plot. 9 Kinases harboring a Cysteine isostructural to Cys797 in EGFR are highlighted
(§5) Kinase % inhibition Kinase % inhibition […]
(§6) aValues are the mean ± SD of one measurement in duplicates; bKinases harboring a Cysteine isostructural to Cys797 […]
(§7) (1 picture or pasted object on this page, not shown here)

[15] = target: FGFR2 (Homo sapiens, UniProt P21802); assay: SelectScreen kinase profiling, FGFR2; format: biochemical; conditions: mean ± SD of one measurement in duplicates
Procedure: as §3, §4, §5, §6, §7

[16] = target: FGFR1 (Homo sapiens, UniProt P11362); assay: SelectScreen kinase profiling, FGFR1; format: biochemical; conditions: mean ± SD of one measurement in duplicates
Procedure: as §3, §4, §5, §6, §7

[17] = H358, 96 hours, CellTiter-Glo, read-out: KRAS CTG EC50 H358
[18] = Homo sapiens, A-431, 96 h, read-out: EGFR CTG EC50 A431, A431, 96 hours, CellTiter-Glo
[19] = A549, 96 h, read-out: KRAS CTG EC50 A549

T1 sequence (P00533 25-1210 L858R): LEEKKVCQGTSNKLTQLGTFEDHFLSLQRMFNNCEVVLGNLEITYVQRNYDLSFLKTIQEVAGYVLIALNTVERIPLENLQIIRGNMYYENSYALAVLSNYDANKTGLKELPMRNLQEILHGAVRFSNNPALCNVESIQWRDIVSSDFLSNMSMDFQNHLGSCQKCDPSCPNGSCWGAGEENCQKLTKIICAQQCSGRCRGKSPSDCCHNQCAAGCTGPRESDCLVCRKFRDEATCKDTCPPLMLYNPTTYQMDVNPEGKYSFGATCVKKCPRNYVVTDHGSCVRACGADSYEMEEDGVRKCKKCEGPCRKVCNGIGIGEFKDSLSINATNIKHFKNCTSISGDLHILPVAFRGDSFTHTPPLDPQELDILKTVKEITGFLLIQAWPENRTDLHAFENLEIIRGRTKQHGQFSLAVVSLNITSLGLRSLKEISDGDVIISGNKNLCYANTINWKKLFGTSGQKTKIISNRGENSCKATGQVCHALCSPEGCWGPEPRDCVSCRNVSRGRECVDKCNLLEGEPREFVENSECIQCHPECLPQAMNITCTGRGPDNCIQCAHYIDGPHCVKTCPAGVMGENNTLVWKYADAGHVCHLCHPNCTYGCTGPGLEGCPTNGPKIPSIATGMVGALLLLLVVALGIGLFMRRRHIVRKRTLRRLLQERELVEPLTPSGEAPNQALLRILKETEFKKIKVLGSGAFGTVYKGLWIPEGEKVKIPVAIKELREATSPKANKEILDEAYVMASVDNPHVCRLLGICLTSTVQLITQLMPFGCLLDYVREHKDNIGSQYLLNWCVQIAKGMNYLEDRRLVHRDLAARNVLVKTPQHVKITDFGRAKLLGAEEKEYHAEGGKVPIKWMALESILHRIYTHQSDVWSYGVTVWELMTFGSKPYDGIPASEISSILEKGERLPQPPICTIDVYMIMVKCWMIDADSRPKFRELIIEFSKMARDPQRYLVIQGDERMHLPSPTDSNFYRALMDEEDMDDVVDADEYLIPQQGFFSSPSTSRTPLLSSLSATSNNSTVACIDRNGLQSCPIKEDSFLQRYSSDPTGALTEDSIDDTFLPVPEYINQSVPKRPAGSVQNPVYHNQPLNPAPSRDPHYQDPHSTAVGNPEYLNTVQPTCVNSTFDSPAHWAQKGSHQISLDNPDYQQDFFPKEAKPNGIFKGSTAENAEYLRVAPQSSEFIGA
Sequence of EGFR-L858R/T790M (P00533 25-1210 T790M/L858R): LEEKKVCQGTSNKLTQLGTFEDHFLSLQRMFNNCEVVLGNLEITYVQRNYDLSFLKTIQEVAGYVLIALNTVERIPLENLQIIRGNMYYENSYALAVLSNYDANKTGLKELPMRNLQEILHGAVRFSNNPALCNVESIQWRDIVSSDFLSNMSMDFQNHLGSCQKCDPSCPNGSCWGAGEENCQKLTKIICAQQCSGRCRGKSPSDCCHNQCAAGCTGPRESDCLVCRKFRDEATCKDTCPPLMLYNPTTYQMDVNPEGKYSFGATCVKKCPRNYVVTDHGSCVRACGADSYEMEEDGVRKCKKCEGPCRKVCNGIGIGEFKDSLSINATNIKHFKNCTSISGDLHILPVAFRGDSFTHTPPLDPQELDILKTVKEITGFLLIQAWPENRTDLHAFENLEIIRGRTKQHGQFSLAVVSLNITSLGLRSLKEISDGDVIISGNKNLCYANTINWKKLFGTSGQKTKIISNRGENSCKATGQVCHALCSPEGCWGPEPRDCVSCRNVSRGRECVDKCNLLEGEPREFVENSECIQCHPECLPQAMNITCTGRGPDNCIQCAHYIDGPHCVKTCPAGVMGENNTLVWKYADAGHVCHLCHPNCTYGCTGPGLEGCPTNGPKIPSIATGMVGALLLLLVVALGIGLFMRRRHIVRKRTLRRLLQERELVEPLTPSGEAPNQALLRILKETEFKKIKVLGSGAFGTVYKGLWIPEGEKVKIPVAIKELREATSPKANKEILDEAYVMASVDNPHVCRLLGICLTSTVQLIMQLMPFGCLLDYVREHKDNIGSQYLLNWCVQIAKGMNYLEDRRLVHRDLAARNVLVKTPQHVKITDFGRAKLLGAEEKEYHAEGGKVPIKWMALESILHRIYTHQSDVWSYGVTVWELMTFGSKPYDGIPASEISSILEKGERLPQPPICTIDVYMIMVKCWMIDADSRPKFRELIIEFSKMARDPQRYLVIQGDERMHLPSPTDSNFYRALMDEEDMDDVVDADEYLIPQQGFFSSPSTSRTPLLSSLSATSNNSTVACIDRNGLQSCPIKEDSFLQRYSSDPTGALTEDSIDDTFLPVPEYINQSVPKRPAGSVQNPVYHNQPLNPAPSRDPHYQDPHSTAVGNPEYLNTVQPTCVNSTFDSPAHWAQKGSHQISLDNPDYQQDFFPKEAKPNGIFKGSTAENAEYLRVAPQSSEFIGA
Sequence of EGFR-wt (P00533 25-1210): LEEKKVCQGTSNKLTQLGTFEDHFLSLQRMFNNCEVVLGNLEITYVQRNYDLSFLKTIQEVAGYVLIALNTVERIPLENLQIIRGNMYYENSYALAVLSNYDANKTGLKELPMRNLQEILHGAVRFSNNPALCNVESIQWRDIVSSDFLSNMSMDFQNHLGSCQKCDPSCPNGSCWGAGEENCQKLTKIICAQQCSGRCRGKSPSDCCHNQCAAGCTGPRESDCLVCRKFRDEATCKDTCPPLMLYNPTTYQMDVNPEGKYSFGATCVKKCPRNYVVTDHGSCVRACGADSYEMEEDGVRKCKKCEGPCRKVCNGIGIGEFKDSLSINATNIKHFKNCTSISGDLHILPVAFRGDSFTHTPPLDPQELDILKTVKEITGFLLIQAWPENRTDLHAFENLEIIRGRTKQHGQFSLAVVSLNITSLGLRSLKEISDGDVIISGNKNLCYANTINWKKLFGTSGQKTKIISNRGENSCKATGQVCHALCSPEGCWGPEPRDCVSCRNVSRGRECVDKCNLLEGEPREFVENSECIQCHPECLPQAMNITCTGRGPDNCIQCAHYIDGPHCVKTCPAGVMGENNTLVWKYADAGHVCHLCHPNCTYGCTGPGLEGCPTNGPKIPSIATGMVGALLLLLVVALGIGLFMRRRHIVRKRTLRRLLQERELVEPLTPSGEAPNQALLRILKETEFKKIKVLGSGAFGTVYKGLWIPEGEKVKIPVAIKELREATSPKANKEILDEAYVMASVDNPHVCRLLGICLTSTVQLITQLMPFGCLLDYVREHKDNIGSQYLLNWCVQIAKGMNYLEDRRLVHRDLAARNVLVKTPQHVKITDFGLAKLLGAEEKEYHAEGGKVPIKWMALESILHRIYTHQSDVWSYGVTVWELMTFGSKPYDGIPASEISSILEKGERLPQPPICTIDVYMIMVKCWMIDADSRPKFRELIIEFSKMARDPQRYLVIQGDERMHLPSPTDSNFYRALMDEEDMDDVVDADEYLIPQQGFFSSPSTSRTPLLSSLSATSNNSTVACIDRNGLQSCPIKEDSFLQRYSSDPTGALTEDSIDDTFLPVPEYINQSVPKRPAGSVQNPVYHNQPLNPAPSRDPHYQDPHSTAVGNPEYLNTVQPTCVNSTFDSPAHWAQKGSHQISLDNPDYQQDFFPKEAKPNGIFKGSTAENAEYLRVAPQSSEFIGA
Sequence of BLK (P51451 whole entry): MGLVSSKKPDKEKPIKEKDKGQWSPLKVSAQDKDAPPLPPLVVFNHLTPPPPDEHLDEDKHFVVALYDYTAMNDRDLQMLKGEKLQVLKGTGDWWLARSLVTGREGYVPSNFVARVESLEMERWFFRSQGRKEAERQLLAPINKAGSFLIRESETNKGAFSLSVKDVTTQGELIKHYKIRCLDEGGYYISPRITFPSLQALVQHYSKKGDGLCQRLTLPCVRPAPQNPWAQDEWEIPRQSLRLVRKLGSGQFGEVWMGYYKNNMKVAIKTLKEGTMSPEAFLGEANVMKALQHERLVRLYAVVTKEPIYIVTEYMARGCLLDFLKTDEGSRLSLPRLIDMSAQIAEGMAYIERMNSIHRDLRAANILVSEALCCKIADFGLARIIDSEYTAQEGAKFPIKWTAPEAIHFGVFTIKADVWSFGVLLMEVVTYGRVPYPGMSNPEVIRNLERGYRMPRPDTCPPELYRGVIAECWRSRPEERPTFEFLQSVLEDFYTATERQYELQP
Sequence of FGFR2 (P21802 22-821): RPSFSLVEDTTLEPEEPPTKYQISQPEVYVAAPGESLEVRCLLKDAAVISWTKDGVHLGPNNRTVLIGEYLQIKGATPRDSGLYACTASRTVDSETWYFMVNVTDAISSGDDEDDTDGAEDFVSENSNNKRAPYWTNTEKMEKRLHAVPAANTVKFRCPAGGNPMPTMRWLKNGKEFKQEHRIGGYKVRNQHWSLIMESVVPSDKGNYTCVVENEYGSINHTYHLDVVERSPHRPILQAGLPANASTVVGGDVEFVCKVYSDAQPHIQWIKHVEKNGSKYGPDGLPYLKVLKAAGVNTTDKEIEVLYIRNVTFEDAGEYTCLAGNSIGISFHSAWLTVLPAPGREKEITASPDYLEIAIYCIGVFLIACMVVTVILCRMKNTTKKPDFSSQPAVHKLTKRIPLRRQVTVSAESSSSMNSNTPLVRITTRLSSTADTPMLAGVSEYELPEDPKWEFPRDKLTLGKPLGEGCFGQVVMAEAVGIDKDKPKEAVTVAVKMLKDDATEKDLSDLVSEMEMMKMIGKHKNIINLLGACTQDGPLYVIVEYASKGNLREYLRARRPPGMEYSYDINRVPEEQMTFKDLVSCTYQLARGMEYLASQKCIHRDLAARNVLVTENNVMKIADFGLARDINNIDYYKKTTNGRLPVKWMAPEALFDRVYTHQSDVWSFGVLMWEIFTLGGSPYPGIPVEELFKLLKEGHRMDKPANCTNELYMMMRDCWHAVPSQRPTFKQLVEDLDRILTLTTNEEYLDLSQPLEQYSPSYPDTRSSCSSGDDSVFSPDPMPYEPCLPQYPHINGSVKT

EC50 [1] | EC50 [2, 17] | microsomal CLint at 3 µM [3] | EC50 [7, 18] | EC50 [8, 19] | EC50 [9] | IC50 [10] | IC50 [11] | IC50 [13] | SMILES | other results
< 14 nM | 3690 ± 1460 nM | 46 µL/min/mg | 1680 ± 402 nM | 3650 ± 1750 nM | 51 ± 19 nM | 0.2 ± 0.2 nM | < 0.1 nM | < 0.1 nM | C=CC(=O)Nc1cccc(-c2c(-c3ccc(N4CCN(C)CC4)cc3)[nH]c3ncnc(OCC(C)C)c23)c1 [Compound 19h] | EC50 ([2]; H358, rounded value in running text, read-out: EC50 H358): 3700 nM; Plasma stability [4]: 100 %remain; fraction unbound at 6 h, 5 µM [5]: 0.001; fraction unbound at 6 h, 5 µM [6]: 0.003; EC50 ([7]; Homo sapiens, A-431, read-out: EC50 A431, A431, rounded value in running text): 1700 nM; EC50 ([8]; A549, read-out: EC50 A549): 3700 nM; Ki [12]: 0.5 ± 0.1 nM; kinact [12]: 0.00467 s⁻¹; kinact/KI [12]: 8.78e+06 ± 650000 M⁻¹ s⁻¹
< 14 nM | 2910 ± 1470 nM | 26 µL/min/mg | 700 nM | 2500 ± 1630 nM | 137 ± 51 nM | 15 ± 10 nM | 2.3 ± 0.4 nM | 4 ± 1.7 nM | C=CC(=O)Nc1cccc(-c2c(-c3ccc(CN4CCN(C)CC4)cc3)[nH]c3ncnc(OC)c23)c1 [Compound 17a] | inhibition at 1 µM [14]: 99 ± 1%; inhibition at 1 µM [15]: 76 ± 1%; inhibition at 1 µM [16]: 72 ± 4%; EC50 ([7]; read-out: EGFR CTG EC50 A431, A431, 96 hours, CellTiter-Glo): 768 ± 271 nM
